# Data published in BindingDB's records for doi:10.7270/Q2JS9NV0 (Nmmlsc, 2009).
# Molecular target: Ras-related C3 botulinum toxin substrate 1 (Mus musculus, UniProt P63001)
# Test: wildtype Rac1 GTP binding inhibitors, SAR follow-up, biochemical, oxadiazole analogs, multiplex bead flow cytometry (AID 2027)
smiles,measurement,value
"COc1ccc(-c2noc(CCC(=O)N3CCN(c4ccccc4F)CC3)n2)cc1 [1-[4-(2-fluorophenyl)piperazin-1-yl]-3-[3-(4-methoxyphenyl)-1,2,4-oxadiazol-5-yl]propan-1-one]",Ki,100 nM
